Data: patent publication US11680078B2, “Anticancer compounds” (GODAVARI BIOREFINERIES LIMITED, priority 2017, dated 2023)
Values joined by “and” are separate entries in the source; they are usually repeats but may differ in a detail not shown here. Equal entries are not always repeated.

Experiments:
MDAMB231 [1] = assay: MTT antiproliferative assay, MDAMB231; type: cell-based; settings: MDAMB231 breast cell line, 48 hrs drug incubation
Procedure: (§1) MTT assay is a simple and sensitive assay where, metabolic reducing activity of the cells is measured. The increase of this activity in time is taken as a parameter of cell growth. If treatment with a drug impairs this increase, the action may be a consequence of growth inhibition, cell killing or both. The compounds of Formula V to XIV of the present invention, standard cytotoxic drug (e.g. Cisplatin) were tested at different concentrations (1, 0.1, 0.01, 0.001 mM) using breast and prostate cancer cell lines. All cell lines were cultured in a 37° C. incubator with a 5% CO2 environment. Compounds were dissolved in DMSO with a concentration of 0.1M (stock solution). Cells were seeded into 96-well plates at suitable plating efficiency.
(§2) Following Plating Efficiencies were Standardized for MTT Assay:
(§3) The MTT procedure followed was as follows. Briefly, the cells were plated in 96 well plate as per predetermined plating efficiency (Table 1) The plates were then incubated for 24 hrs in 5% CO2 atmosphere at 37° C. Appropriate concentrations of the drugs were then added to the plate and further incubation was carried out for 48 hrs (in 5% CO2 atmosphere at 37° C.). The assay plate was then centrifuged twice at 3000 rpm for 3 mins and supernatant was then discarded. 100 ul of MTT solution (0.5 mg/ml) was then added to each well of the plate and it was further incubated for 4 hrs (in 5% CO2 atmosphere at 37° C.) Following 4 hr incubation, the plate was then centrifuged twice, and supernatant was aspirated off very carefully. 200 ul of DMSO was then added to each well to solubilize. MTT crystals and mixed well by shaking the plate. XY graph of log Percent viability was then plotted against log drug concentration. […] (Drug concentration inhibiting the 50% of cell population) was then calculated by regression analysis.

DU145 = assay: MTT antiproliferative assay, DU145; type: cell-based; settings: DU145 prostate cell line, 48 hrs drug incubation
Procedure: as §1, §2, §3

spheres of MDAMB231 = assay: In vitro sphere-forming assay, MDAMB231 in Mammosphere media; type: cell-based; settings: 2000 cells/well, n = 6 ± S.D
Text: (§4) Sphere assay measures the ability of Cancer Stein Cells to form spheres in specially designed serum-free medium. We have used this assay to measure the killing efficiency of the test compounds as compared to the standard chemotherapeutic drug, Cisplatin.
(§5) Materials and Reagents:50× B27 Supplement (Life Technologies, Invitrogen, Catalog No.: 17502-044), Fibroblast Growth Factor (FGF) (Sigma-Aldrich, Catlog No.: F029125), Epidermal Growth Factor (EGF) (Sigma-Aldrich, Catlog No.: E9644), Insulin (Sigma, Catlog No.: 19278), Dulbecco's Modified Eagle Medium/F12 (HiMedia Catlog No.: AL139-6), Dulbecco's Phosphate Buffered Saline (HiMedia Catlog No.: TL1006), Trypan Blue (TC193), Prostate Epithelial Media (LONZA, Catlog No.: CC-3166) MEGM (LONZA, Catlog No.: CC-3051), Heparin (Sigma, Catlog No.: H3393), Penstrep (HiMedia, Catlog No.: A002)
Mammosphere Media Preparation (For 100 mL): 1 g methyl cellulose autoclaved with magnetic stirrer Plain media (MEBM), 100 mL added and dissolved under magnetic stirring. After complete dissolution, add: FGF-80 μL, EGF-40 μL, Penstrep-1 mL, Heparin-400 μL.
(§6) Procedure: —The cells were trypsinised and made into single-cell suspension by passing through cell strainers ([…], respectively), The cells were diluted at the concentration of 2000 cells/100 μL and suspended in either Mammosphere (for breast cell lines) or Prostosphere (for prostate cell lines). 100 μL of this suspension was added into each well of 96-well suspension plates and incubated at 37° C., 5% CO2 for 24 hrs. Appropriate concentrations of the drugs (2 μL) were added into respective wells with 100 μL of stem cell culture medium. Plates were incubated at 37° C., 5% CO2 for 72 hrs. After incubation 2.5 μL of the respective drug concentration and 50 μL of stem cell culture medium were added into each well and the plates were further incubated at 37° C., 5% CO2 for 72 hrs. 3 μL of the respective drug concentration was added with 50 μL of stem cell culture medium again after incubation and plates were incubated again for 72 hrs at 37° C., 5% CO2. Number of primary spheres formed for each concentration was counted. A comparative graph of number of spheres formed was plotted against the concentration and the growth curve was compared with the positive control.

PC3 [2] = assay: MTT antiproliferative assay, PC3; type: cell-based; settings: PC3 prostate cell line, 48 hrs drug incubation
Procedure: as §1, §2, §3

MDAMB231 [3] = assay: Soft Agar colony-formation Assay, MDAMB231; type: cell-based; settings: MDAMB231 breast cell line, 1 week
Procedure: (§7) The Soft Agar Colony-formation Assay is an anchorage-independent growth assay in soft agar, which is one of the most stringent assays for detecting malignant transformation of cells. For this assay, malignant cells are cultured with appropriate controls in soft agar medium for 1-2 weeks. Following this incubation period, formed colonies can either be analyzed morphologically using cell stain and quantifying the number of colonies formed.
(§8) Briefly, for Soft Agar Assay a mixture of 50 ul of 2× medium (taken appropriately as per cell line) and 50 ul of 1.2% Bacto Agar were plated on to each well of 96 well micro titer assay plate. 10 ul of cells (Of specific plating efficiency pre-standardized for respective cell line) were mixed with 20 ul of 2× medium and 30 ul of 0.8% of Bacto Agar and 1.6 ul of drug (of appropriate concentration) in a vial and transferred to the solidified pre-layers of the assay plates. The cells were then allowed to grow and form colonies at 37° C. and 5% CO2 for 1 week. An intermittent feeding with 50 ul of appropriate 2× medium was performed after 3 days of experimental set up. 16 ul of Alamar Blue (1.5 mg/ml) was then added to all the wells to quantify the developed colonies. The plates were incubated for 24 hrs at 37° C. Absorbance was then measured at 630 nm. XY graph of log Percent viability was then plotted against log drug concentration. IC50 (Drug concentration inhibiting the 50% of cell population) was then calculated by regression analysis.
(§9) Following Plating Efficiencies Were Standardized for Soft Agar Assay: […]

spheres of PC3 = assay: In vitro sphere-forming assay, PC3 in Prostosphere media; type: cell-based; settings: 2000 cells/well, n = 6 ± S.D
Text: as §4, §5
Prostosphere Media Preparation (For 100 mL):1 g methyl cellulose autoclaved with magnetic stirrer, Plain media (Prostate Epithelial Basal Medium), 100 mL added and dissolved, under magnetic stirring. After complete dissolution, add: Insulin-40 μL, B27-2 mL, EGF-80 μL, Penstrep-1 ml.
as §6

PC3 [4] = assay: Soft Agar colony-formation Assay, PC3; type: cell-based; settings: PC3 prostate cell line, 1 week
Procedure: as §7, §8, §9

normal lymphocytes = assay: Normal cell assay (MTT) on lymphocytes from a healthy donor
Procedure: In order to test the activity of cytotoxic drugs towards normal cells, we performed MTT
Assay for these cytotoxic drugs using lymphocytes obtained from a healthy donor.
Briefly, diluted defibrinated fresh blood was overlaid gradually on HiSeP LSM1077 and centrifuged at low speed for 30 mins. The lymphocyte layer (the buffy coat) (Fig) was carefully removed in a new collection tube. The buffy coat was given another wash, by the diluent buffer, to reduce the platelet contamination. The supernatant was discarded, and the pellet was resuspended in diluent buffer. The viability was checked by Haemocytometer. Cells with Viability and Purity of 95% and more were considered for the assay. MTT assay was performed with these cells as described above with plating efficiency of 0.7 million/ml.

MCF7 = assay: MTT antiproliferative assay, MCF7; type: cell-based; settings: MCF-7 breast cell line, 48 hrs drug incubation
Procedure: as §1, §2, §3

[5] = Homo sapiens, MDA-MB-231, 168 h

| SMILES | IC50 (MDAMB231 [1]; Homo sapiens, MDA-MB-231) [µM] | IC50 (DU145; Homo sapiens, DU-145) [µM] | 3D sphere count of MDAMB231 (spheres of MDAMB231; drug conc 0.025 uM) | 3D sphere count of MDAMB231 (spheres of MDAMB231; drug conc 0.25 uM) | 3D sphere count of MDAMB231 (spheres of MDAMB231; drug conc 2.5 uM) | 3D sphere count of MDAMB231 (spheres of MDAMB231; drug conc 25 uM) | 3D sphere count of MDAMB231 (spheres of MDAMB231; drug conc 250 uM) | IC50 (PC3 [2]; Homo sapiens, PC-3) [µM] | IC50 (MDAMB231 [3]; [5]) [µM] | 3D sphere count of PC3 (spheres of PC3; drug conc 0.025 uM) | 3D sphere count of PC3 (spheres of PC3; drug conc 0.25 uM) | 3D sphere count of PC3 (spheres of PC3; drug conc 2.5 uM) | 3D sphere count of PC3 (spheres of PC3; drug conc 25 uM) | 3D sphere count of PC3 (spheres of PC3; drug conc 250 uM) | IC50 (PC3 [4]; Homo sapiens, PC-3, 168 h) [µM] | IC50 (MCF7; Homo sapiens, MCF7) [µM] | also measured |
| --- | --- | --- | --- | --- | --- | --- | --- | --- | --- | --- | --- | --- | --- | --- | --- | --- | --- |
| Cl.c1ccc(COc2ccc(-c3ccc4c(c3)OCO4)c3cccnc23)cc1 [Formula XIII, 5-(benzo[d][1,3]dioxol-5-yl)-8-(benzyloxy)quinoline hydrochloride] | 8 | 4.06 | 45(±2) | 36(±3) | 27(±2) | 13(±2) | 0(±0) | 4.33 | 2.68 | 41(±7) | 39(±5) | 27(±3) | 14(±1) | 0(±0) | 6.32 | – | – |
| CCOC(=O)c1c(C(=O)OCC)c(-c2ccc3c(c2)OCO3)c2cc(OC)c(OC)cc2c1OC1OC[C@@H](OC)[C@H](OC)[C@H]1O (stereo partly drawn) [Formula VI, diethyl 1-(benzo[d][1,3]dioxol-5-yl)-4-((3R,4R,5R)-3-hydroxy-4,5-dimethoxy-tetrahydro-2H-pyran-2-yloxy)-6,7-dimethoxynaphthalene-2,3-dicarboxylate] | 10.1 | – | 44(±3) | 36(±2) | 24(±3) | 7(±2) | 0(±0) | 5.65 | 14.2 | 40(±3) | 28(±2) | 30(±2) | 21(±2) | 0(±0) | 3.25 | – | activity on normal lymphocytes (normal lymphocytes): does not show activity |
| O[C@@H]1[C@H](O)COC(Oc2ccc(-c3ccc4c(c3)OCO4)c3ccccc23)[C@H]1O (stereo partly drawn) [Formula XI, (3S,4R,5R)-2-(1-(benzo[d][1,3]dioxol-5-yl)naphthalen-4-yloxy)-tetrahydro-2H-pyran-3,4,5-triol] | 9.77 | 10.2 | – | – | – | – | – | 4.16 | 2.08 | – | – | – | – | – | 18.8 | 4.36 | – |
| O=C(Oc1ccc(-c2ccc3c(c2)OCO3)c2ccccc12)C(c1ccccc1)C1CCCC1 (stereo not drawn) [Formula IX, 1-(benzo[d][1,3]dioxol-5-yl)naphthalen-4-yl 2-cyclopentyl-2-phenylacetate] | 5.26 | 8.91 | 52(±4) | 40(±5) | 26(±3) | 22(±3) | 0(±0) | 5.62 | 2.12 | 60(±7) | 44(±4) | 37(±5) | 31(±3) | 0(±0) | 4.81 | 5.24 | – |
| O=C(Nc1ccc(-c2ccc3c(c2)OCO3)c2ccccc12)c1ccco1 [Formula XII, N-(1-(benzo[d][1,3]dioxol-5-yl)naphthalen-4-yl)furan-2-carboxamide] | 3.37 | 9.82 | 31(±2) | 27(±2) | 17(±2) | 8(±1) | 0(±0) | 19.6 | 2.14 | 37(±3) | 28(±3) | 23(±2) | 15(±2) | 0(±0) | 3.36 | 4.95 | – |
| N.N.[Cl][Pt][Cl] [Cisplatin, reference compound] | – | – | 50(±3) and 89(±4) and 62(±6) and 67(±2) | 42(±3) and 69(±7) and 48(±2) and 58(±3) | 35(±2) and 51(±5) and 43(±2) and 46(±3) | 31(±3) and 38(±8) and 37(±4) and 35(±2) | 18(±2) and 23(±5) and 31(±4) and 26(±3) | – | – | 58(±4) and 47(±4) and 62(±5) and 45(±2) | 47(±5) and 49(±7) and 55(±5) and 42(±3) | 40(±3) and 41(±4) and 46(±2) and 39(±2) | 32(±2) and 31(±5) and 33(±3) and 32(±3) | 25(±3) and 30(±5) and 22(±4) and 21(±2) | – | – | IC50 (MCF7): 29.6 µM and 32.4 µM and 33 µM; IC50 (MDAMB231 [1]): 32.7 µM and 38.5 µM and 37 µM and 35.5 µM; IC50 (DU145): 23.9 µM and 43 µM and 34.4 µM and 35.5 µM; IC50 (PC3 [2]): 28 µM and 29 µM and 40.7 µM and 35.8 µM and 36.4 µM; IC50 (MDAMB231 [3]): 41.7 µM and 24.8 µM and 37.3 µM and 23.9 µM; IC50 (PC3 [4]): 20.6 µM and 21.3 µM and 23.8 µM and 21.9 µM |
| Cn1cccc1C(=O)Oc1ccc(-c2ccc3c(c2)OCO3)c2ccccc12 [Formula X, 1-(benzo[d][1,3]dioxol-5-yl)naphthalen-4-yl 1-methyl-1H-pyrrole-2-carboxylate] | 3.16 | 3.28 | 39(±4) | 37(±4) | 28(±3) | 24(±3) | 0(±0) | 2.6 | 2.07 | – | – | – | – | – | 2.38 | 3.46 | activity on normal lymphocytes (normal lymphocytes): does not show activity |
